According to patent US20060069132A1, “Azolecarboxamide herbicides” (priority 2004, published 2006):
Read-outs that look alike come from different tables or passages of the source.

Columns and labels:
[1] = tested on: giant foxtail; assay: Test A pre-/postemergence herbicide test; format: in vivo, Setaria faberi; conditions: for pest or weed control at 500 g/ha / pest or weed control at 2000 g/ha: Setaria faberi, 240 h
In short: (§1)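 Visual injury scores on a 0–100 scale (100 = complete control) taken about ten days post-treatment in greenhouse against untreated controls; dash means no result. Treatments: preemergence soil spray and postemergence spray to runoff on one- to two-leaf plants 2 to 10 cm tall, surfactant-containing formulation.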

[2] = tested on: morningglory; assay: Test A pre-/postemergence herbicide test; format: in vivo, Ipomoea spp.; conditions: for pest or weed control at 500 g/ha / pest or weed control at 2000 g/ha: Ipomoea, 240 h
In short: as §1

[3] = tested on: smallflower umbrella sedge; assay: Test C flooded paddy test; format: in vivo, Cyperus difformis; conditions: for pest or weed control at 62 g/ha / pest or weed control at 125 g/ha / pest or weed control at 250 g/ha / pest or weed control at 500 g/ha: Cyperus difformis; for pest or weed control at 500 g/ha / Plant response rating, Sedge, Umbrella: 500 g ai/ha
[4] = tested on: barnyardgrass; assay: Test C flooded paddy test; format: in vivo, Echinochloa crus-galli; conditions: for pest or weed control at 62 g/ha / pest or weed control at 125 g/ha / pest or weed control at 250 g/ha / pest or weed control at 500 g/ha: Echinochloa crus-galli; for pest or weed control at 500 g/ha / Plant response rating, Barnyardgrass: 500 g ai/ha
In short: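 Visual rating, 0 (no effect) to 100 (complete control), vs. controls at 12–14 d in greenhouse. Postemergence: 1–4-leaf plants, 2–18 cm. Paddy: flooded, barnyardgrass at 2-leaf stage.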

[5] = tested on: rice; assay: Test B pre-/postemergence herbicide test; format: in vivo, Oryza sativa; conditions: 0 = no effect, 100 = complete control, preemergence
In short: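 Seeds were planted and treated preemergence with compounds formulated in a non-phytotoxic solvent mixture containing surfactant, while plants at the 1- to 4-leaf stage (2 to 18 cm) received postemergence sprays. Flooded paddy plants were grown to the 2-leaf stage. After 13 to 15 days in a greenhouse, injury was visually rated 0–100 against untreated controls.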

[6] = post-emergence, Postemergence, 2000 g ai/ha, 0 to 100 scale, 0 no effect, 100 complete control, read-out: Plant response rating, Foxtail, Giant
[7] = pre-emergence, Preemergence, 500 g ai/ha, visual rating, 0 to 100 scale (0 no effect, 100 complete control), read-out: Foxtail, Giant plant response rating
[8] = post-emergence, Postemergence, 2000 g ai/ha, 0 to 100 scale, 0 no effect, 100 complete control, read-out: Plant response rating, Morningglory
[9] = pre-emergence, Preemergence, 500 g ai/ha, visual rating, 0 to 100 scale (0 no effect, 100 complete control), read-out: Morningglory plant response rating
[10] = visual rating after 12 to 14 days, scale 0 to 100 (0 no effect, 100 complete control), read-out: Plant response rating, Sedge, Umbrella
[11] = 62 g ai/ha, scale 0 to 100 (0 no effect, 100 complete control), read-out: Barnyardgrass plant response rating
[12] = visual rating after 12 to 14 days, scale 0 to 100 (0 no effect, 100 complete control), read-out: Plant response rating, Barnyardgrass
[13] = 125 g ai/ha, scale 0 to 100 (0 no effect, 100 complete control)
[14] = 250 g ai/ha, scale of 0 to 100, 0 is no effect, 100 is complete control
[15] = visual rating after 12 to 14 days, scale 0 to 100 (0 no effect, 100 complete control)
[16] = 62 g ai/ha, scale 0 to 100 (0 no effect, 100 complete control)
[17] = Postemergence, 500 g ai/ha, 0 to 100 scale, 0 no effect, 100 complete control
[18] = Postemergence, 2000 g ai/ha, 0 to 100 scale, 0 no effect, 100 complete control
[19] = Preemergence, 500 g ai/ha, visual rating, 0 to 100 scale (0 no effect, 100 complete control)
[20] = Preemergence, 2000 g ai/ha, 0 to 100 scale, 0 no effect, 100 complete control
[21] = 125 g ai/ha, scale of 0 to 100, 0 is no effect, 100 is complete control

CCn1nc(C(C)(C)C)cc1C(=O)Nc1cccc(C(=O)NCC(F)(F)F)c1 [Compound 43, 3-(1,1-dimethylethyl)-1-ethyl-N-[3-[[(2,2,2-trifluoroethyl)amino]carbonyl]-phenyl]-1H-pyrazole-5-carboxamide]
pest or weed control at 500 g/ha ([1]; post-emergence, Postemergence, 500 g ai/ha, 0 to 100 scale, 0 no effect, 100 complete control, read-out: Plant response rating, Foxtail, Giant): 70%
pest or weed control at 2000 g/ha [1, 6]: 70%
pest or weed control at 500 g/ha [1, 7]: 55%
pest or weed control at 2000 g/ha ([1]; pre-emergence, Preemergence, 2000 g ai/ha, 0 to 100 scale, 0 no effect, 100 complete control, read-out: Foxtail, Giant plant response rating): 100%
pest or weed control at 500 g/ha ([2]; post-emergence, Postemergence, 500 g ai/ha, 0 to 100 scale, 0 no effect, 100 complete control, read-out: Plant response rating, Morningglory): 20%
pest or weed control at 2000 g/ha [2, 8]: 30%
pest or weed control at 500 g/ha [2, 9]: 10%
pest or weed control at 2000 g/ha ([2]; pre-emergence, Preemergence, 2000 g ai/ha, 0 to 100 scale, 0 no effect, 100 complete control, read-out: Morningglory plant response rating): 40%
pest or weed control at 62 g/ha ([3]; 62 g ai/ha, scale 0 to 100 (0 no effect, 100 complete control), read-out: Sedge, Umbrella plant response rating): 30%
pest or weed control at 125 g/ha ([3]; 125 g ai/ha, scale of 0 to 100, 0 is no effect, 100 is complete control, read-out: Sedge, Umbrella plant response rating): 50%
pest or weed control at 250 g/ha ([3]; 250 g ai/ha, visual rating after 12 to 14 days, scale 0 to 100 (0 no effect, 100 complete control), read-out: Plant response rating, Sedge, Umbrella): 70%
pest or weed control at 500 g/ha [3, 10]: 80%
pest or weed control at 62 g/ha [4, 11]: 0%
pest or weed control at 125 g/ha ([4]; 125 g ai/ha, scale of 0 to 100, 0 is no effect, 100 is complete control, read-out: Barnyardgrass plant response rating): 0%
pest or weed control at 250 g/ha ([4]; 250 g ai/ha, visual rating after 12 to 14 days, scale 0 to 100 (0 no effect, 100 complete control), read-out: Plant response rating, Barnyardgrass): 40%
pest or weed control at 500 g/ha [4, 12]: 50%

C=CCOc1cccc(NC(=O)c2cc(C(C)(C)C)nn2CC)c1 [Compound 412]
Sedge, Umbrella plant response rating ([3]; 62 g ai/ha, scale 0 to 100): 70
Sedge, Umbrella plant response rating [3, 13]: 75
Sedge, Umbrella plant response rating [3, 14]: 80
Plant response rating, Sedge, Umbrella [3, 15]: 95
Barnyardgrass plant response rating [4, 16]: 0
Barnyardgrass plant response rating [4, 13]: 20
Barnyardgrass plant response rating [4, 14]: 35
Plant response rating, Barnyardgrass [4, 15]: 45

CCn1nc(C(C)(C)C)cc1C(=O)Nc1cccc(C(=O)OC)n1 [Compound 143, methyl 6-[[[3-(1,1-dimethylethyl)-1-ethyl-1H-pyrazol-5-yl]carbonyl]amino]-2-pyridinecarboxylate]
pest or weed control at 500 g/ha ([1]; post-emergence, Postemergence, 500 g ai/ha, 0 to 100 scale, 0 no effect, 100 complete control, read-out: Foxtail, Giant plant response rating): 10%
pest or weed control at 2000 g/ha [1, 6]: 15%
pest or weed control at 500 g/ha [1, 7]: 0%
pest or weed control at 2000 g/ha ([1]; pre-emergence, Preemergence, 2000 g ai/ha, visual rating, 0 to 100 scale (0 no effect, 100 complete control), read-out: Foxtail, Giant plant response rating): 0%
pest or weed control at 500 g/ha ([2]; post-emergence, Postemergence, 500 g ai/ha, 0 to 100 scale, 0 no effect, 100 complete control, read-out: Morningglory plant response rating): 10%
pest or weed control at 2000 g/ha [2, 8]: 25%
pest or weed control at 500 g/ha [2, 9]: 0%
pest or weed control at 2000 g/ha ([2]; pre-emergence, Preemergence, 2000 g ai/ha, visual rating, 0 to 100 scale (0 no effect, 100 complete control), read-out: Morningglory plant response rating): 0%

C#CCOc1cccc(NC(=O)c2cc(C(C)(C)C)nn2CC)c1 [Compound 411]
Sedge, Umbrella plant response rating ([3]; 62 g ai/ha, scale 0 to 100): 60
Sedge, Umbrella plant response rating [3, 13]: 75
Sedge, Umbrella plant response rating [3, 14]: 80
Plant response rating, Sedge, Umbrella [3, 15]: 85
Barnyardgrass plant response rating [4, 16]: 15
Barnyardgrass plant response rating [4, 13]: 25
Barnyardgrass plant response rating [4, 14]: 40
Plant response rating, Barnyardgrass [4, 15]: 45

CCOC(=O)c1cccc(NC(=O)c2cc(C(C)(C)C)nn2CCF)c1 [Compound 79]
Plant response rating, Foxtail, Giant [1, 17]: 30
Plant response rating, Foxtail, Giant [1, 18]: 40
Foxtail, Giant plant response rating [1, 19]: 10
Foxtail, Giant plant response rating [1, 20]: 40
Plant response rating, Morningglory [2, 17]: 15
Plant response rating, Morningglory [2, 18]: 25
Morningglory plant response rating [2, 19]: 20
Morningglory plant response rating [2, 20]: 60
Sedge, Umbrella plant response rating [3, 16]: 75
Sedge, Umbrella plant response rating [3, 21]: 75
Sedge, Umbrella plant response rating [3, 14]: 80
Plant response rating, Sedge, Umbrella [3, 15]: 85
Barnyardgrass plant response rating [4, 16]: 10
Barnyardgrass plant response rating [4, 21]: 25
Barnyardgrass plant response rating [4, 14]: 25
Plant response rating, Barnyardgrass [4, 15]: 80

CCn1nc(C(C)(C)C)cc1C(=O)Nc1cc(C(=O)OC(C)C)c(F)cc1F [Compound 248]
Rice plant response rating (0 to 100 scale) ([5]; 125 g ai/ha): 0
Plant response rating, Rice ([5]; 500 g ai/ha, visual rating): 0

C#CCNC(=O)c1cccc(NC(=O)c2nn(C(C)(C)C)nc2CC)c1 [Compound 380]
Sedge, Umbrella plant response rating ([3]; 62 g ai/ha, scale 0 to 100): 80
Sedge, Umbrella plant response rating [3, 13]: 85
Sedge, Umbrella plant response rating [3, 14]: 85
Plant response rating, Sedge, Umbrella [3, 15]: 90
Barnyardgrass plant response rating [4, 16]: 35
Barnyardgrass plant response rating [4, 13]: 45
Barnyardgrass plant response rating [4, 14]: 65
Plant response rating, Barnyardgrass [4, 15]: 70

CCc1nn(C(C)C)nc1C(=O)Nc1cccc(C(=O)N(C)C)c1 [Compound 358, N-[3-[(dimethylamino)carbonyl)phenyl]-5-ethyl-2-(1-methylethyl)-2H-1,2,3-triazole-4-carboxamide]
pest or weed control at 62 g/ha ([3]; 62 g ai/ha, scale 0 to 100, read-out: Sedge, Umbrella plant response rating): 15%
pest or weed control at 125 g/ha ([3]; 125 g ai/ha, scale 0 to 100 (0 no effect, 100 complete control), read-out: Sedge, Umbrella plant response rating): 85%
pest or weed control at 250 g/ha ([3]; 250 g ai/ha, scale of 0 to 100, 0 is no effect, 100 is complete control, read-out: Sedge, Umbrella plant response rating): 85%
pest or weed control at 500 g/ha [3, 10]: 85%
pest or weed control at 62 g/ha [4, 11]: 0%
pest or weed control at 125 g/ha ([4]; 125 g ai/ha, scale 0 to 100 (0 no effect, 100 complete control), read-out: Barnyardgrass plant response rating): 60%
pest or weed control at 250 g/ha ([4]; 250 g ai/ha, scale of 0 to 100, 0 is no effect, 100 is complete control, read-out: Barnyardgrass plant response rating): 75%
pest or weed control at 500 g/ha [4, 12]: 85%
